Source: patent US7972870B2, “Methods and compositions relating to the regulation of MUC1 by HSF1 and STAT3” (Dana-Farber Cancer Institute, Inc., priority 2007, dated 2011)

Assays:
[1] = system: MUC1 expression in MCF10A cells; experiment: MUC1 expression by immunoblot of whole-cell lysates after stimulation; assay type: cell-based
Protocol: FIG. 2A is a pair of photographs of immunoblots depicting the induction of MUC1 expression following heregulin (HRG) treatment. MCF10A cells were cultured without (“0”) and with HRG (20 ng/mL) for 24 (“24”) and 48 (“48”) hours. Cells were harvested at the indicated time points and lysed for western blot analysis. Whole-cell lysates were subjected to sodium dodecyl sulfate polyacrylamide gel electrophoresis (SDS-PAGE) under reducing conditions and proteins were detected (immunoblotted, “IB”) using antibodies specific for MUC1-C and β-actin (top and bottom photographs, respectively). The relative positions (e.g., the molecular weights) of the proteins are reported in kilodaltons (kDa) and indicated to the left of each of the immunoblots (e.g., 25 kDa or 45 kDa). “HRG” indicates treatment with heregulin.
FIG. 2C is a photograph of an immunoblot depicting the induction of MUC1 expression following IL-6 treatment. MCF10A cells were treated without (“0”) and with IL-6 (20 ng/mL) and then cultured at 37° C. for 24 (“24”) and 48 (“48”) hours. Cells were harvested at the indicated time points and lysed for western blot analysis. Whole-cell lysates were subjected to SDS-PAGE under reducing conditions and proteins were detected (immunoblotted, “IB”) using antibodies specific for MUC1-C. The relative positions (e.g., the molecular weights) of the proteins are reported in kilodaltons (kDa) and indicated to the left of the immunoblot. “IL-6” indicates IL-6 treatment.
Heregulin treatment of cells results in (i) activation of ErbB2, ErbB3, and ErbB4 and (ii) induction of the formation of complexes between these receptors and MUC1. To assess if MUC1 is regulated by heregulin in normal cells, the induction of MUC1 expression by heregulin treatment was assessed in the immortalized, but non-cancer breast cell line MCF10A. […] As a control for loading, β-actin was detected using anti-β-actin (Sigma, St. Louis, Mo.). […]

GST-STAT3 = GST-STAT3 (Homo sapiens, UniProt P40763); experiment: In vitro GST pull-down binding assay; conditions: purified His-tagged MUC1-CD, GST as control, immunoblot
Protocol: The binding of MUC1 to HSF1 could be direct or indirect, for example, through a third protein. To determine if the interaction between MUC1 and HSF1 is a direct, physical interaction, in vitro binding assays was performed. GST- and GST-STAT3 polypeptides were incubated with purified His-tagged MUC1-CD (similar to GST-HSF1-His-MUC1 experiments described above). The protein mixtures were then incubated with glutathione beads, which bind to the GST proteins and associated binding partners if present. The glutathione bead adsorbates were washed and immunoblotted with antibodies specific for His tags or to MUC1-C (as described above).

Sequence of GST-STAT3 (P40763 whole entry): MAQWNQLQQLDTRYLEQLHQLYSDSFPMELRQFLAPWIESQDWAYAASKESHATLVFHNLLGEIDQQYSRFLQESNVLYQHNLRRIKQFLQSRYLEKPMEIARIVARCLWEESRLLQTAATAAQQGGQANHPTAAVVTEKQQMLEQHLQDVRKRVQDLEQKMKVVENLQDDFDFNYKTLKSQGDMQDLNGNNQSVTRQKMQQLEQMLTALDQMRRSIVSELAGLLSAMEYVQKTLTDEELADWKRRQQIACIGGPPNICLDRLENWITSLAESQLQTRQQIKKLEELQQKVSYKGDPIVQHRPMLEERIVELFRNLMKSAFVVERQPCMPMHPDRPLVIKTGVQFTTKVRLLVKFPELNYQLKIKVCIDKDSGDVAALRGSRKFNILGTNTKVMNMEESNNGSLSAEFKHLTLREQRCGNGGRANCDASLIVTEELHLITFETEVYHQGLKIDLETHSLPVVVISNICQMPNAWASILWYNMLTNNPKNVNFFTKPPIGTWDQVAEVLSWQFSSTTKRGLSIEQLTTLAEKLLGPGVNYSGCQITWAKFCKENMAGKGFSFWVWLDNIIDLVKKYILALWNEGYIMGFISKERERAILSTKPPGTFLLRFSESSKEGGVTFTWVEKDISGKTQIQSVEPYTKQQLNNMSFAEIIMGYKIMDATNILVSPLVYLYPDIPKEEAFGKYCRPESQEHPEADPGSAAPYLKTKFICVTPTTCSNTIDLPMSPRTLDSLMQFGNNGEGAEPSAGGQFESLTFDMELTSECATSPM

For “IL-6: inflammatory cytokine IL-6 (R&D Systems) that activates STAT3 through the Janus kinases”, the MUC1 expression ([1]; 0.1% serum overnight, 20 ng/mL IL-6, expected result) was “induce both STAT3 phosphorylation (activation) and MUC1 expression” and the MUC1 expression ([1]; IL-6 20 ng/mL, 24 and 48 hours (FIG. 2C)) was “induces MUC1 expression”.

B1: His-tagged MUC1: purified His-tagged MUC1 cytoplasmic domain (MUC1-CD, SEQ ID NO:2) (protein, listed as Homo sapiens)
chain: CQCRRKNYGQLDIFPARDTYHPMSEYPTYHTHGRYVPPSSTDRSPYEKVSAGNGGSSLSYTNPAVAAASANL
modifications: His tag
B1 was tested, and the “binding to GST-STAT3 (glutathione bead adsorbates)” value (GST-STAT3) was “present in GST-STAT3 adsorbates but not GST-adsorbates”.

B2: HRG: heregulin (HRG) (Calbiochem-Novabiochem), ligand activating ErbB2, ErbB3 and ErbB4 (protein, listed as Homo sapiens)
chain: MEIYSPDMSEVAAERSSSPSTQLSADPSLDGLPAAEDMPEPQTEDGRTPGLVGLAVPCCACLEAERLRGCLNSEKICIVPILACLVSLCLCIAGLKWVFVDKIFEYDSPTHLDPGGLGQDPIISLDATAASAVWVSSEAYTSPVSRAQSESEVQVTVQGDKAVVSFEPSAAPTPKNRIFAFSFLPSTAPSFPSPTRNPEVRTPKSATQPQTTETNLQTAPKLSTSTSTTGTSHLVKCAEKEKTFCVNGGECFMVKDLSNPSRYLCKCPNEFTGDRCQNYVMASFYSTSTPFLSLPE
For B2, the MUC1 protein expression ([1]; 20 ng/mL HRG, anti-MUC1-C immunoblot (FIG. 2A)) was “increase in MUC1 protein expression”.
